According to US6506745B1, “Medicinal compositions for treatment of atrial fibrillation” (Noboru Kaneko, priority 1998, dated 2003):

Assays:
[1] = test system: atrial fibrillation induced by means of electrical stimulation; experiment: Atrial fibrillation induced by electrical stimulation in chronically paced right atrium; format: in vivo, hybrid of a labrador and beagle
Description: In the experimental test, a hybrid of a labrador and beagle was used. An electrode for electrical excitation was embedded in the right atrium. From a week after the operation, the right atrium was subjected to a continuous pacing at an excitation frequency of 400 or 600 bpm by an external pacemaker. Further, for 31 day, the right atrium was subjected to a pacing giving a burst excitation (10 mA,50 Hz,1 sec) 5 days a week and several hours a day. Compound 1 was continuously injected into forearm vein (0.3mg/kg/min×2 min+0.03 mg/kg/min). At 20 minutes before and after administrating, the excitation current (50 Hz, 1 sec) was increased from 3 mA to 10 mA in increments of 0.5 mA to determine each atrial fibrillation threshold (AFT). Then, the atrial fibrillation duration (AF duration) and the interval (FF interval) of atrial fibrillation waves, which were generated by the excitation current of 10 mA, were measured. In FIG. 1, the mean value of the AF duration before administration was 35.1±9.0 sec, and the mean value after administration was 12.1±1.9 sec. In FIG. 2, the mean value of the FF interval before administration was 51.3±1.7 msec, and the mean value after administration was 61.7±1.8 msec.

right atrial muscle = experiment: Active potential duration (APD90) of isolated right atrial muscle under electrical stimulation; format: cell-based, beagle; details: 90 minutes after adding
Method: A beagle was used in the experimental test. Its right atrial. muscle was surgically extracted, and a sample was fixed with pins within an experimental vessel which is perfused with Tyrode liquid (10 ml/min). Using an electrical stimulator, the atrial muscle was stimulated by a voltage two times greater than that of generating an active potential, and rectangular waves having pulse. width of 2 msec in a frequency of 2 Hz, and the generated active potential was measured by a glass microelectrode inserted into the cells. Compound 1 was added into the experimental vessel with condensations of 0.3 μM and 1 μM. At 90 minutes before and after adding the compound, the sample was excited with various excitation frequencies, and each active potential was recorded to. determine the duration (90% recovery time; APD90).

COc1ccc2c(c1)CN(C(=O)CCN1CCC(Cc3ccccc3)CC1)CCS2 [Compound 1, 4-[3-(4-benzylpiperidine-1-yl)propionyl]-7-methoxy-2,3,4,5-tetrahydro-1,4-benzothiazepine]
atrial fibrillation duration (AF duration), mean value after administration ([1]; i.v. 0.3 mg/kg/min x 2 min + 0.03 mg/kg/min, 20 minutes after administrating, excitation current 10 mA, before administration 35.1±9.0 sec): 12.1 ± 1.9 s | interval of atrial fibrillation waves (FF interval), mean value after administration ([1]; i.v. 0.3 mg/kg/min x 2 min + 0.03 mg/kg/min, 20 minutes after administrating, excitation current 10 mA, before administration 51.3±1.7 msec): 61.7 ± 1.8 ms | atrial fibrillation threshold (AFT) after administration ([1]; i.v. 0.3 mg/kg/min x 2 min + 0.03 mg/kg/min, 20 minutes after administrating, increased from 7 mA before): 10 mA | extension of FF interval after administration ([1]; i.v. infusion, excitation current 10 mA, FIG. 2): about 20% | duration (APD90) change after addition (right atrial muscle; 0.3 μM, excitation frequency 0.67 Hz): 106.0 ± 2.01% | duration (APD90) change after addition (right atrial muscle; 0.3 μM, excitation frequency 1 Hz): 110.1 ± 2.75% | duration (APD90) change after addition (right atrial muscle; 0.3 μM, excitation frequency 2 Hz): 113.0 ± 1.48% | duration (APD90) change after addition (right atrial muscle; 0.3 μM, excitation frequency 3.33 Hz): 111.5 ± 10.52% | duration (APD90) change after addition (right atrial muscle; 1 μM, excitation frequency 0.67 Hz): 112.9 ± 6.47% | duration (APD90) change after addition (right atrial muscle; 1 μM, excitation frequency 1 Hz): 111.3 ± 5.34% | duration (APD90) change after addition (right atrial muscle; 1 μM, excitation frequency 2 Hz): 118.1 ± 2.88% | duration (APD90) change after addition (right atrial muscle; 1 μM, excitation frequency 3.33 Hz): 124.7 ± 9.40%
